Reference: patent publication US20240254129A1, “HETEROCYCLIC COMPOUNDS AND USES THEREOF” (Kumquat Biosciences Inc., priority 2021, published 2024)

What was measured:
wildtype Kras / hSOS1 = biological target: T1, wildtype Kras / hSOS1 (Homo sapiens, UniProt P01116); assay: HTRF assay, wildtype Kras / SOS1 interaction; assay type: binding; details: compound nos. 102-196, general methodology of example 5; read-out: IC50 against wildtype Kras
T1 construct: made in house; host or cells: E. coli BL21 (DE3)
T1 sequence (P01116 1-188 isoform P01116-2): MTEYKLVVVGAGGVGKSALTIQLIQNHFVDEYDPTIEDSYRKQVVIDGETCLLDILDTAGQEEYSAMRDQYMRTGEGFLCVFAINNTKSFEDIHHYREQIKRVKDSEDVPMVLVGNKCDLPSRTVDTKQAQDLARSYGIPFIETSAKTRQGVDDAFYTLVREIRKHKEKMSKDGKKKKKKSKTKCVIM
How it was run: (§1)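 HTRF read-out (ex 337, em 620 and 665 nm) of Ras–SOS1 equilibrium binding: Eu-anti-GST on GST-K-Ras, XL665-anti-6His on His-hSOS1. Incubation about 10 min or longer; IC50 fitted from emission ratio, compounds in duplicate at 10 μM down to 0.01 μM.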

[1] = biological target: GST-tagged K-Ras mutant / His-tagged hSOS1 (Homo sapiens, UniProt P01116); assay: HTRF assay, K-Ras mutant / SOS1 interaction; assay type: binding; details: compound nos. 102-196, general methodology of example 5; read-out: IC50 against mutant Kras
GST-tagged K-Ras mutant / His-tagged hSOS1, sequence (P01116 whole entry G12D, form open): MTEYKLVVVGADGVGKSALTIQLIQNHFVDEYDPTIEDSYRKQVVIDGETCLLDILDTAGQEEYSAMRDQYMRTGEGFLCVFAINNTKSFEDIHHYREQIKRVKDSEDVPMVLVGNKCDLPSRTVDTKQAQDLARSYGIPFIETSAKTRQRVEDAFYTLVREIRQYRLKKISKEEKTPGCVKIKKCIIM
How it was run: as §1

Structure (SMILES)	IC50 (wildtype Kras / hSOS1) [nM]	IC50 [1] [nM]
Nc1nc2c(-c3c(Cl)cc4c(N5CCOCC(O)C5)nc(OCC56CCCN5CCC6)nc4c3F)ccc(F)c2s1 (centres unmarked) [Compound 159, 4-(7-(2-amino-7-fluoro-benzo[d]thiazol-4-yl)-6-chloro-8-fluoro-2-((tetra-hydro-1H-pyrrolizin-7a(5H)-yl)methoxy)quinazolin-4-yl)-1,4-oxazepan-6-ol]	< 500	< 500
Nc1nc2c(-c3c(Cl)cc4c(N5CCOCC(O)C5)nc(OCC56CCCN5C[C@H](F)C6)nc4c3F)ccc(F)c2s1 (stereo partly drawn) [Compound 160, 4-(7-(2-amino-7-fluoro-benzo[d]thiazol-4-yl)-6-chloro-8-fluoro-2-(((2R)-2-fluorotetrahydro-1H-pyrrol-izin-7a(5H)-yl)methoxy)-quinazolin-4-yl)-1,4-oxazepan-6-ol]	< 500	> 500
Nc1nc2c(-c3c(Cl)cc4c(N5CCNCC(O)C5)nc(OCC56CCCN5CCC6)nc4c3F)ccc(F)c2s1 (centres unmarked) [Compound 161, 1-(7-(2-amino-7-fluoro-benzo[d]thiazol-4-yl)-6-chloro-8-fluoro-2-((tetra-hydro-1H-pyrrolizin-7a(5H)-yl)methoxy)quinazolin-4-yl)-1,4-diazepan-6-ol]	< 500	< 500
Nc1nc2c(-c3c(Cl)cc4c(N5CCNCC(O)C5)nc(OCC56CCCN5C[C@H](F)C6)nc4c3F)ccc(F)c2s1 (stereo partly drawn) [Compound 162, 1-(7-(2-amino-7-fluoro-benzo[d]thiazol-4-yl)-6-chloro-8-fluoro-2-(((2R)-2-fluorotetrahydro-1H-pyrrol-izin-7a(5H)-yl)methoxy)-quinazolin-4-yl)-1,4-diazepan-6-ol]	< 500	< 500
Nc1nc2c(-c3c(Cl)cc4c(N5CCNCC(F)C5)nc(OCC56CCCN5CCC6)nc4c3F)ccc(F)c2s1 (centres unmarked) [Compound 163, 4-(6-chloro-8-fluoro-4-(6-fluoro-1,4-diazepan-1-yl)-2-((tetrahydro-1H-pyrrolizin-7a(5H)-yl)methoxy)quin-azolin-7-yl)-7-fluorobenzo-[d]thiazol-2-amine]	< 500	< 500
Nc1nc2c(-c3c(Cl)cc4c(N5CCNCC(F)C5)nc(OC[C@@]56CCCN5C[C@H](F)C6)nc4c3F)ccc(F)c2s1 (stereo partly drawn) [Compound 164, 4-(6-chloro-8-fluoro-4-(6-fluoro-1,4-diazepan-1-yl)-2-(((2R,7aS)-2-fluorotetra-hydro-1H-pyrrolizin-7a(5H)-yl)methoxy)quinazolin-7-yl)-7-fluorobenzo[d]thiazol-2-amine]	< 500	< 500
Nc1nc2c(-c3c(Cl)cc4c(N5CCOCC(N)C5)nc(OCC56CCCN5CCC6)nc4c3F)ccc(F)c2s1 (centres unmarked) [Compound 165, 4-(7-(2-amino-7-fluoro-benzo[d]thiazol-4-yl)-6-chloro-8-fluoro-2-((tetra-hydro-1H-pyrrolizin-7a(5H)-yl)methoxy)quinazolin-4-yl)-1,4-oxazepan-6-amine]	< 500	< 500
CN1CCC[C@H]1COc1nc(N2CCNCC(F)(F)C2)c2cc(Cl)c(-c3cccc4nc(N)oc34)c(F)c2n1 [Compound 166, 7-(6-chloro-4-(6,6-difluoro-1,4-diazepan-1-yl)-8-fluoro-2-(((S)-1-methylpyrrolidin-2-yl)methoxy)quinazolin-7-yl)benzo[d]oxazol-2-amine]	> 500	> 500
Nc1nc2c(-c3c(Cl)cc4c(N5CCCOCC5)nc(OC[C@@]56CCCN5C[C@H](F)C6)nc4c3F)cccc2o1 [Compound 167]	< 500	< 500
Nc1nc2c(-c3c(Cl)cc4c(N5CCCCC(F)(F)C5)nc(OC[C@@]56CCCN5C[C@H](F)C6)nc4c3F)ccc(F)c2s1 [Compound 168, 4-(6-chloro-4-(3,3-difluoro-azepan-1-yl)-8-fluoro-2-(((2R,7aS)-2-fluorotetra-hydro-1H-pyrrolizin-7a(5H)-yl)methoxy)quinazolin-7-yl)-7-fluorobenzo[d]thiazol-2-amine]	< 500	< 500
